According to patent US20230277831A1, “Focused Ultrasound Device” (Washington University, priority 2022, published 2023):

Test: Evans blue delivery after FUS-BBBO, fluorescence imaging of brain sections
Format: in vivo, mice (C57BL/6)
Conditions: mouse brain
Experimental: Following the FUS-BBBO treatment as described in Example 3, the brains of the mice were harvested and harvested sections were fluorescence imaged using an LI-COR imaging system (Pearl Trilogy; 700 Channel laser source (Ex 785 nm/Em 820 nm); resolution 85 μm). Enhanced fluorescence signals associated with the delivery of Evans blue through the FUS-disrupted BBB were determined by comparing sections from FUS-BBBO and corresponding untreated brain halves.
Evans Blue has been commonly used as a model drug for evaluating the FUS-BBBO drug delivery outcome. The harvested mouse brains were cut into 1-mm thick coronal sections using the mouse brain matrix (World Precision Instrument, Sarasota, Fla., USA). Fluorescence images of brain sections were taken using a LI-COR imaging system (Pearl Trilogy; 700 Channel laser source (Ex 785 nm/Em 820 nm); resolution 85 μm) and analyzed using Matlab (Mathworks, Natick, Mass., USA). […] Pixels with intensities above the background autofluorescence intensity were identified for each brain section. Evans blue delivery volume was calculated by the total number of pixels with enhanced fluorescence signal in all the brain sections. The mean fluorescence intensity of pixels with enhanced fluorescence signal in all the brain sections was calculated to represent the signal intensity of the delivered Evans blue.

Evans Blue extravasation (FUS at 0.4 MPa and 0.57 MPa for all frequencies (1.5, 3.0, 6.0 MHz) and 0.2 MPa for 1.5 MHz): observed | Evans Blue extravasation (FUS at 3.0 MHz and 6.0 MHz at 0.2 MPa): not detectable | Evans Blue delivery volume (i.v., FUS-BBBO at 1.5 MHz, 0.57 MPa (largest BBB opening volume), mean±SD): 69±3.8 mm^3 | Evans Blue signal intensity (i.v., FUS-BBBO at 1.5 MHz, 0.57 MPa, mean fluorescence intensity, mean±SD): 47±8.2 | Evans Blue delivery volume (i.v., FUS-BBBO at 6 MHz, 0.4 MPa (smallest BBB opening volume), mean±SD): 8.9±1.3 mm^3
Structure (SMILES): Cc1cc(-c2ccc(/N=N/c3ccc4c(S(=O)(=O)O)cc(S(=O)(=O)O)c(N)c4c3O)c(C)c2)ccc1/N=N/c1ccc2c(S(=O)(=O)O)cc(S(=O)(=O)O)c(N)c2c1O [Evans Blue]
